The test system of data set [1] is osteoblasts (monolayer culture). The data set can be described thus: Mineralization (von Kossa, image analysis), monolayer osteoblast cell culture. Type of data set: cell-based, rat. The settings on record: for mineralization (FIG. 3): no significant difference between groups. As to the method:
This isolation technique is based on the ability of osteoblasts to migrate from bone onto a substratum. Parietal and frontal calvariae (4 per animal) were aseptically explanted from 6 day-old IcoIbm rats. The calvariae were placed in Tyrode's balanced salt solution, calcium and magnesium free (TESS). The periosteum was enzymatically removed with 0.05% trypsin and 0.02% collagenase A (0.76 U/mg) dissolved in TBSS (40 calvaria/20 ml). The calvariae were shaken for 70 minutes in a waterbath at 37° C. They were washed with TESS and then transferred to 60 mm culture dishes (40 calvariae/dish) containing 5 ml of 0.02% collagenase A (0.76 U/mg) in culture medium BGJb Fitton-Jackson modification and placed in the incubator for 4 hours. The calvariae were then washed with culture medium B supplemented with 10% foetal calf serum (FCS). The calvariae were transferred into 60 mm culture dishes (4 frontal and 4 parietal/dish). The growth medium supplemented with 10% FCS and 50 μg/ml ascorbate was completely changed every 48 hours. The culture was kept for 3 weeks. After 3 weeks the migrated cells were harvested. The dish was washed with TESS, and 5 ml of TESS containing 0.05% trypsin and 0.02% collagenase A (0.76 U/mg) was added. After 1 hour in the incubator, the dish was washed with culture medium BGJb supplemented with 10% FCS. The dishes containing the calvariae and cells were rinsed with serum containing media BGJb. The cells obtained were filtered through a 40 μm nylon mesh to remove bone debris and cell aggregates. The suspended cells were centrifuged at 600 g for 5 minutes. The cell pellet was resuspended in serum containing medium BGJb and centrifuged. The viability of the resuspended cells was examined by the dye exclusion of 0.4% trypan blue, and the cells were counted in a haeinocytometer. The inoculation densities were 2·10^5/10 cm^2 for monolayer and 2·10^5/30 μl for micromasses. The micromass cultures were kept for 1 hour in the incubator before 2 ml growth medium was added. All the cultures were kept at 37° C. in a humidified atmosphere of 5% CO2, 95% air. All culture media were supplemented with 50 μg/ml ascorbate. To analyze the collagen types, 60 μg/ml beta-aminopropionitrile (beta-APN) was added to the culture medium. During cell isolation and inoculation, no ascorbate was used to increase plating efficiency. No antibiotics and no beta-glycerophosphate were added. The media were completely changed every 48 hours (60 mm culture dish 5 ml; 35 mm culture dish 2 ml). The most specific method for detecting calcified matrices is the von Kossa reaction. Silver staining indicates the presence of calcium phosphate aggregated with certain organic acids. Structural details are completely obscured by the dark precipitate. Calcified tissue components are darkened in various shades from light brown to deep black, irrespective of their mineral content. [table] In the further experiments to quantify the calcification by image analysis of a center area (123 mm^2) of the culture dish, only the creatine groups were compared to the control groups, with the GPA-treated cells not further evaluated.

Another data set concerns cultured chondrocytes. The settings on record: cited from earlier work.
For data set [2], the system named is osteoblasts (monolayer culture). Briefly: Cell viability (neutral red uptake), monolayer osteoblast cell culture. Type of data set: cell-based, rat. As to the method: This isolation technique is based on the ability of osteoblasts to migrate from bone onto a substratum. Parietal and frontal calvariae (4 per animal) were aseptically explanted from 6 day-old IcoIbm rats. The calvariae were placed in Tyrode's balanced salt solution, calcium and magnesium free (TESS). The periosteum was enzymatically removed with 0.05% trypsin and 0.02% collagenase A (0.76 U/mg) dissolved in TBSS (40 calvaria/20 ml). The calvariae were shaken for 70 minutes in a waterbath at 37° C. They were washed with TESS and then transferred to 60 mm culture dishes (40 calvariae/dish) containing 5 ml of 0.02% collagenase A (0.76 U/mg) in culture medium BGJb Fitton-Jackson modification and placed in the incubator for 4 hours. The calvariae were then washed with culture medium B supplemented with 10% foetal calf serum (FCS). The calvariae were transferred into 60 mm culture dishes (4 frontal and 4 parietal/dish). The growth medium supplemented with 10% FCS and 50 μg/ml ascorbate was completely changed every 48 hours. The culture was kept for 3 weeks.
After 3 weeks the migrated cells were harvested. The dish was washed with TESS, and 5 ml of TESS containing 0.05% trypsin and 0.02% collagenase A (0.76 U/mg) was added. After 1 hour in the incubator, the dish was washed with culture medium BGJb supplemented with 10% FCS. The dishes containing the calvariae and cells were rinsed with serum containing media BGJb. The cells obtained were filtered through a 40 μm nylon mesh to remove bone debris and cell aggregates. The suspended cells were centrifuged at 600 g for 5 minutes. The cell pellet was resuspended in serum containing medium BGJb and centrifuged. The viability of the resuspended cells was examined by the dye exclusion of 0.4% trypan blue, and the cells were counted in a haeinocytometer. The inoculation densities were 2·10^5/10 cm^2 for monolayer and 2·10^5/30 μl for micromasses. The micromass cultures were kept for 1 hour in the incubator before 2 ml growth medium was added.
All the cultures were kept at 37° C. in a humidified atmosphere of 5% CO2, 95% air. All culture media were supplemented with 50 μg/ml ascorbate. To analyze the collagen types, 60 μg/ml beta-aminopropionitrile (beta-APN) was added to the culture medium. During cell isolation and inoculation, no ascorbate was used to increase plating efficiency. No antibiotics and no beta-glycerophosphate were added. The media were completely changed every 48 hours (60 mm culture dish 5 ml; 35 mm culture dish 2 ml).
The method described in (Lindl et al. 1994) was used.
The uptake of NR into lysosomes is […] the metabolic status of the cell.
0.5 mg Neutral red/ml growth medium, warmed up to 37° C. for at least 2 hours,
50% ethanol in 1% acetic acid
1. The cells were incubated in 2 ml/10 cm^2NR solution at 37° C. for 3 hours.
2. The supernatant was removed,
3. washed with PBS, at least 3 times, until no crystals were present.
4. Addition of 4 ml/10 cm^2 extraction buffer.
5. The absorbance of the supernatant (3 aliquots/dish) was read at 540 nm versus extraction buffer.
6. If the absorbance was higher than 1, the samples were diluted with extraction buffer.
The mean value and the standard deviation consisted of n independent experiments. The values for the individual experiments were gained from the mean of 3 aliquots of the same dish. To compare the treatment, contrasts analysis of variance models were evaluated.

Setting [3] is: 10 mM creatine vs control, 3 weeks.

On to `N=C(N)NCCC(=O)O` [GPA, beta-guanidinopropionic acid], for which the calcification pattern result in data set [1] (3 weeks, GPA groups, mineralization not limited to the nodules) is “different from the control and the creatine groups”. In addition, the “synthesis of pro-a type II and type X collagen” value in the data set on cultured chondrocytes is recorded as “interferes with the synthesis”.

Regarding `CN(CC(=O)O)C(=N)N` [creatine], the “mineralization (FIG. 3)” value was “more mineralization than the control” in data set [1] (setting [3]) and “less effective” in data set [1] (20 mM creatine, 3 weeks, compared with 10 mM). The “calcified area (FIG. 3)” value in data set [1] (20 mM creatine vs control, 2 weeks, p<0.02, center area 123 mm^2) was “significantly higher”. Further, in data set [1] (creatine groups vs control, after 2 and 3 weeks), the “mineralization, mean values” was “Mean values were higher”. Besides, the “NR uptake (FIG. 1)” value is given as “no significant difference between the groups” in data set [2] (10 mM and 20 mM creatine vs control, 1 and 2 weeks); “significantly higher” in data set [2] (10 mM creatine, 3 weeks compared to 1 week, p<0.02); “significantly lowered NR uptake” in data set [2] (20 mM creatine vs control, 3 weeks, p<0.008). Also, the “toxic effect (from NR uptake)” value in data set [2] (10 mM creatine) is “no toxic effect”; in data set [2] (20 mM creatine, 3 weeks), “some toxic effects on the proliferation of the cells”. Also, the “NR uptake (FIG. 1), difference to control” value in data set [2] (setting [3]) was “not significant”.

Source of the values: patent US20020039567A1, “Methods of treating bone or cartilage conditions by the administration of creatine” (priority 1998, published 2002).
